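Tested at 5 concentrations; 48 h exposure; 96-well plates; endpoints linearly interpolated, else capped at highest concentration. Abbreviation: GI50, concentration required for 50% inhibition of growth. The concentration for full growth arrest is given as TGI.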 Where a SMILES comes first, the peptide text is derived from it. The star is where a group is joined. Boc = CC(C)(C)OC(=O)*; Bz = O=C(c1ccccc1)*
How the values were obtained:
Assay in all cases: NCI-60 cell line screen, 48 h
MOLT-4 leukemia = tested on: MOLT-4 leukemia
T-47D breast = tested on: T-47D breast
CAKI-1 renal = tested on: CAKI-1 renal
CCRF-CEM leukemia = tested on: CCRF-CEM leukemia
SK-OV-3 ovarian = tested on: SK-OV-3 ovarian
OVCAR-8 ovarian = tested on: OVCAR-8 ovarian
UO-31 renal = tested on: UO-31 renal
A549 NSCLC = tested on: A549 NSCLC
UACC-62 melanoma = tested on: UACC-62 melanoma
UACC-257 melanoma = tested on: UACC-257 melanoma

SMILES | TGI (MOLT-4 leukemia) [µM] | TGI (T-47D breast) [µM] | TGI (CAKI-1 renal) [µM] | TGI (CCRF-CEM leukemia) [µM] | TGI (SK-OV-3 ovarian) [µM] | TGI (OVCAR-8 ovarian) [µM] | TGI (UO-31 renal) [µM] | TGI (A549 NSCLC) [µM] | TGI (UACC-62 melanoma) [µM] | TGI (UACC-257 melanoma) [µM] | GI50 (MOLT-4 leukemia) [µM] | GI50 (CAKI-1 renal) [µM] | GI50 (OVCAR-8 ovarian) [µM] | GI50 (UO-31 renal) [µM] | GI50 (A549 NSCLC) [µM]
CC(NC(=O)C(Cc1ccc(OC(=O)c2ccccc2)cc1)NC(=O)OC(C)(C)C)C(=O)NC(Cc1ccccc1)C(=O)NCC(N)=O (stereo not drawn) (Boc-Y(Bz)AFG-NH2; configuration not given here) | > 100 | 50.7 | > 100 | > 100 | 39.4 | 58.8 | 35.2 | 55 | 37.3 | 37 |  |  |  |  | 
CCc1ccc(N=Cc2cc(OC)c(OC)c(OC)c2)cc1 | > 100 |  | > 100 | > 100 | > 100 | > 100 | > 100 | > 100 | > 100 | > 100 |  |  |  |  | 
COc1ccccc1/C=C/C1=NN(c2cccc(S(=O)(=O)O)c2)C2(C1)SCC(=O)N2c1nc2ccccc2s1 (stereo not drawn) | > 100 | 71.8 | > 100 | 90 |  | > 100 | > 100 | > 100 | > 100 | > 100 |  |  |  |  | 
CCOC(=O)C1(C(N)=O)C(=O)c2ccncc2C1=O (stereo not drawn) |  | > 100 | > 100 | > 100 | > 100 | > 100 | > 100 | > 100 | > 100 | > 100 |  |  |  |  | 
CC(=N\N)/C(C)=N/N=C(C)/C(C)=N/N=C(C)/C(C)=N/N=C(C)/C(C)=N/N | > 100 | > 100 | > 100 | > 100 | > 100 | > 100 | > 100 | > 100 |  | > 100 |  |  |  |  | 
COc1cc2c[n+](C)c3c4cc(OC)c(OC)cc4c(OC)cc3c2cc1OC |  | 12.2 | > 100 | > 100 | > 100 | 23 | > 100 | > 100 | > 100 | 18.3 |  |  |  |  | 
COc1cc(C=O)ccc1Oc1nnnn1-c1ccccc1 | 75.1 | 58 | 85.3 | 52.4 | > 100 | > 100 | > 100 | > 100 |  | > 100 |  |  |  |  | 
CC(=O)Nc1ccc(Nc2cc(=O)[nH]c(=O)[nH]2)cc1 | 37.4 | > 100 |  |  |  | > 100 | > 100 | > 100 |  | > 100 |  |  |  |  | 
CC1(C)CCC[C@@]2(C)C1CCC1(C)C(CCc3ccoc3)/C(=C/OS(=O)(=O)O)CCC12 (stereo partly drawn) (tested in a mixture with another compound) | 79.7 |  | > 100 | > 100 | > 100 | > 100 | > 100 | > 100 | > 100 | > 100 |  |  |  |  | 
CC(=O)OC1C(C)OC(Oc2c(C)c3c4c(c2O)[C@@H](C)CC[C@@H]4[C@@H](C)C[C@H]3C=C(C)C)C(O)C1O (stereo partly drawn) | > 100 |  | 3.74 |  |  | > 100 | > 100 | > 100 |  |  | 2.23 | 1.87 | 37.8 | 22.6 | 10
CC(C)(C)c1cc(CC2C(=O)c3ccccc3C2=O)cc(C(C)(C)C)c1O | 9.56 |  | 20.4 | 40.7 | 7.71 | 14.7 | 10.5 | 87.2 | 17.7 | 15.4 |  |  |  |  | 
